Experimental data from PubChem BioAssay (NCI).
“And” between values parts separate entries of the source, which are not always exact repeats. Identical values can stand only once.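 Dose response: 5 concentrations. Exposure: 48 h. Format: 96-well plates. Endpoint: linear interpolation; highest concentration if not reached. Here, GI50 denotes the concentration required for 50% inhibition of growth. TGI: concentration producing complete growth inhibition.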

Experiments:
Assay in all cases: NCI-60 cell line screen, 48 h
[1] = test system: RXF 393 renal
[2] = test system: ACHN renal
[3] = test system: EKVX NSCLC
[4] = test system: HCT-116 colon
[5] = test system: TK-10 renal
[6] = test system: NCI-H460 lung
[7] = test system: KM12 colon
[8] = test system: U251 CNS
[9] = test system: A498 renal
[10] = test system: HOP-92 NSCLC

Row | Structure (SMILES) | TGI [1] [µM] | TGI [2] [µM] | TGI [3] | TGI [4] | TGI [5] | TGI [6] | TGI [7] | TGI [8] [µM] | TGI [9] [µM] | TGI [10] [µM] | GI50 [1] [µM] | GI50 [10] [µM] | GI50 [2] [µM] | GI50 [4] [µM] | GI50 [5] [µM] | GI50 [9] [µM] | GI50 [6] [µM] | GI50 [7] [µM] | GI50 [8] [µM] | GI50 [3] [µM]
1 | OCC1OC2c3ccccc3COC2C1OCc1ccccc1 (configuration not stated) | > 100 | > 100 | > 100 µM | > 100 µM | > 100 µM | > 100 µM | > 100 µM | > 100 | – | – | – | – | – | – | – | – | – | – | – | –
2 | N#CCCN(CCC#N)c1ccc(/C=C(/NC(=O)c2cc([N+](=O)[O-])ccc2Cl)C(=O)NN)cc1 | > 100 | > 100 | > 100 µM | > 100 µM | > 100 µM | > 100 µM | > 100 µM | > 100 | > 100 | – | – | – | – | – | – | – | – | – | – | –
3 | CC(=O)c1ccccc1NC(=O)C(=O)C(C(=O)c1ccc2ccccc2c1)C1OC(=O)c2ccccc21 (configuration not stated) | – | > 100 | > 100 µM | 29.6 µM | 92.4 µM | > 100 µM | 52.2 µM | 40.7 | 43.9 | 41.1 | – | – | – | – | – | – | – | – | – | –
4 | COC1=CC(c2ccc[nH]2)=N/C1=C\c1[nH]c(C)c(C(=O)CCC(=O)Oc2ccc3c(c2)CCC2C3CC[C@]3(C)[C@@H](O)CC[C@@H]23)c1C (some centres not stated) | 69.8 | 6.7 | – | 3.57 µM | > 100 µM | > 100 µM | > 100 µM | 28.4 | 8.82 | 4.39 | 4.71 | 1.45 | 1.94 | 1.03 | 7.68 | 1.87 | 3.07 | 3 | 2.99 | –
5 | CCCCCCCCCCCCCC[n+]1ccccc1 | – | 6.18 | – | – | 1.81 µM | 2.73 µM | 2.25 µM | 1.77 | 3.57 | 0.841 | – | 0.144 | 1.27 | – | 0.491 | 0.717 | 1.22 | 0.855 | 0.426 | –
6 | COc1ccc(/C=C/C(=O)c2c(O)ccc3c(C)c(C(=O)O)oc23)cc1 | > 100 | > 100 | > 100 µM | > 100 µM | > 100 µM | > 100 µM | > 100 µM | > 100 | 67.7 | – | 55.5 | – | > 100 | 49.2 | > 100 | 14.9 | 34 | > 100 | 33.2 | > 100
7 | N/C=N/S(=O)(=O)c1ccc(NC(=O)COC(=O)c2cccc3c(=O)c4ccccc4[nH]c23)cc1 | > 100 | > 100 | > 100 µM | > 100 µM | > 100 µM | > 100 µM | > 100 µM | > 100 | – | – | – | – | – | – | – | – | – | – | – | –
8 | O=[N+]([O-])c1cc(-c2nc(=S)[nH][nH]2)ccc1O | > 100 | > 100 | > 100 µM | > 100 µM | > 100 µM | > 100 µM | > 100 µM | > 100 | > 100 | – | – | – | – | – | – | – | – | – | – | –
9 | C[C@@H](N)COc1ccc(-c2cnc3ccc(N[C@H](C)c4cccc(F)c4)nn23)cc1 | – | 6.35 | 12.6 µM | 3.07 µM | 8.22 µM | 3.88 µM | 1.5 µM | 4.18 | 5.58 | 1.89 | – | 0.338 | 2.15 | 1.46 | 1.75 | 1.52 | 1.75 | – | 1.59 | 2.71
10 | Oc1c(C(Nc2ccccn2)c2cccc(Oc3ccccc3)c2)ccc2cccnc12 (configuration not stated) | 22.1 | 7.2 | – | 16.6 µM | 14.5 µM | 10.5 µM | 23.4 µM | 14 | 6.22 | 23.7 | 1.32 | 0.522 | 0.41 | 0.449 | 0.672 | 0.262 | 0.365 | 0.45 | 0.362 | –
11 | NC1N=Nc2ccccc21 (configuration not stated) | > 100 | > 100 | > 100 µM | > 100 µM | > 100 µM | > 100 µM | > 100 µM | > 100 | – | > 100 | – | – | – | – | – | – | – | – | – | –
12 | N#CC(C#N)=CNCCN1CCN(C=C(C#N)C#N)CC1 | – | > 100 | > 100 µM | > 100 µM | > 100 µM | > 100 µM | > 100 µM | > 100 | > 100 | > 100 | – | – | – | – | – | – | – | – | – | –
13 | CS(=O)(=O)N1CCC(n2c(=O)c(Oc3ccc(F)cc3F)cc3cnc(NC4CCOCC4)nc32)CC1 | > 25 | > 25 | – | > 25 µM | > 25 µM | > 25 µM | > 25 µM | > 25 | > 25 | > 25 | 6.88 | > 25 | > 25 | > 25 | 19.9 | 3.18 | > 25 | > 25 | > 25 | –
14 | COc1cc2c(c(O)c1Cl)C(=O)c1c(O)cc(C[C@H](C)O)cc1[C@H]2[C@H]1c2cc(C[C@H](C)O)cc(O)c2C(=O)c2c1cc(OC)c(Cl)c2O | – | – | 75 µM and 90.9 µM | 75 µM and > 100 µM | 33 µM and > 100 µM | 17.7 µM and 52.1 µM | 75 µM and > 100 µM | – | – | – | – | – | – | – | – | – | – | – | – | –
15 | COC(=O)Oc1nn(C(=O)OC)c(=O)c2ccccc12 | – | > 100 | > 100 µM | > 100 µM | > 100 µM | – | > 100 µM | > 100 | – | – | – | – | – | – | – | – | – | – | – | –
16 | CCc1ccccc1NC(=O)C(C#N)C1=C(Cl)C(=O)c2ccccc2C1=O (configuration not stated) | 43.1 | 29.9 | 33.7 µM | 28.8 µM | 33.7 µM | 40.6 µM | 28.4 µM | 29.8 | – | > 100 | – | – | – | – | – | – | – | – | – | –
17 | Cc1ccc([P+](Cc2ccccc2)(c2ccccc2)c2ccccc2)cc1 | 41.1 | > 100 | – | > 100 µM | – | 10.5 µM | 12 µM | 24.4 | 7.15 | – | 3.68 | – | 3.95 | 1.81 | – | 1.63 | 2.33 | 1.69 | 2.14 | –
18 | Cc1ccc([Se](=C(C(=O)c2ccccc2)C(=O)c2ccccc2)c2ccc(C)cc2)cc1 | > 100 | 77.8 | – | > 100 µM | 94.6 µM | > 100 µM | 44.1 µM | 68.2 | 49 | 53.4 | – | – | – | – | – | – | – | – | – | –
